Experimental data reported in ChEMBL document CHEMBL3603814, “Heterocyclic chalcone activators of nuclear factor (erythroid-derived 2)-like 2 (Nrf2) with improved in vivo efficacy” (Bioorg Med Chem, 2015).
The source made the active and inactive calls. No cut-off for these calls is given here.

Key:
[1] = target: T1, Nuclear factor erythroid 2-related factor 2 (Homo sapiens) (UniProt Q16236); test: Activation of Nrf2 in human BEAS2B cells assessed as increase in HO1 gene expression at 5 uM incubated for 6 hrs by qPCR method; format: cell-based
T1 sequence (whole entry): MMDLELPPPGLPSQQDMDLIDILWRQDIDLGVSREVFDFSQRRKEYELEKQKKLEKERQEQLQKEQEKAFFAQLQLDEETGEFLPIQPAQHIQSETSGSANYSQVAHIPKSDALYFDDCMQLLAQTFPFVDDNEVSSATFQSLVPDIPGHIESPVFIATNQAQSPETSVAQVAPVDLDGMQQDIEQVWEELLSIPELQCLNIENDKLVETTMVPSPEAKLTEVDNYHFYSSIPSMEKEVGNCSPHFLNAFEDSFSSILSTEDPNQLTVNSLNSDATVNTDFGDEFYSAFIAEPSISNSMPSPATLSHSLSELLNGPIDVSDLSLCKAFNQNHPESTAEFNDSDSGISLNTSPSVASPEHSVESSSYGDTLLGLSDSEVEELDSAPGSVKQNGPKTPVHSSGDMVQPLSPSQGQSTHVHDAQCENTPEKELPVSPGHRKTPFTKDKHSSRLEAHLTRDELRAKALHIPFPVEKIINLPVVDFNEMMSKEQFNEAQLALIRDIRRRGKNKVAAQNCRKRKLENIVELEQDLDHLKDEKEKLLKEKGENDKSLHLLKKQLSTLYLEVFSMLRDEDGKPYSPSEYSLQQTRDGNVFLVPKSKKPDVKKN

[2] = target: T1, Nuclear factor erythroid 2-related factor 2 (Homo sapiens); test: Activation of Nrf2 in human BEAS2B cells assessed as increase in HO1 gene expression at 10 uM incubated for 6 hrs by qPCR method; format: cell-based
[3] = tested on: Mus musculus; test: Increase in HO-1 protein expression in mouse lung at 400 mg/kg, po measured 6 hrs post dose by ELISA method; format: functional, organism-based
[4] = tested on: Mus musculus; test: Increase in HO-1 gene expression in mouse lung at 200 mg/kg, po measured 6 hrs post dose by qPCR method; format: functional, organism-based
[5] = tested on: Mus musculus; test: Increase in HO-1 gene expression in mouse lung at 400 mg/kg, po measured 6 hrs post dose by qPCR method; format: functional, organism-based
[6] = tested on: Mus musculus; test: Increase in HO-1 protein expression in mouse lung at 200 mg/kg, po measured 6 hrs post dose by ELISA method; format: functional, organism-based

**Q.** Which Activity [1] does the source give for `COc1ccccc1C(=O)/C=C/c1ccncc1C(F)(F)F` here?
**A.** Its Activity is “Active”.

**Q.** For `COc1ccncc1C(=O)/C=C/c1ccccc1C(F)(F)F`, which Activity [1] is on record?
**A.** The Activity was “Active”.

**Q.** Which Activity [1] does the source give for `COc1ccccc1C(=O)/C=C/c1cnccc1C(F)(F)F` here?
**A.** Its Activity is “Active”.

**Q.** How did the Activity [2] turn out when `COC(=O)[C@]12CCC(C)(C)C[C@H]1[C@H]1C(=O)C=C3[C@@]4(C)C=C(C#N)C(=O)C(C)(C)[C@@H]4CC[C@@]3(C)[C@]1(C)CC2` was run?
**A.** Its Activity is “Active”.

**Q.** `COc1ccccc1C(=O)/C=C/c1ncccc1C(F)(F)F` was tested. Which Activity [3] did it give?
**A.** Its Activity is “Active”.

**Q.** And the Activity [4]?
**A.** The Activity was “Active”.

**Q.** And the Activity [1]?
**A.** The Activity was “Active”.

**Q.** What about the Activity [5] of the same molecule?
**A.** Its Activity is “Active”.

**Q.** With `COc1cnccc1C(=O)/C=C/c1ccccc1C(F)(F)F` as the molecule, how does the Activity [1] read?
**A.** Its Activity is “Active”.

**Q.** What does the source list for `COc1ccccc1C(=O)/C=C/c1ccccc1C(F)(F)F`?
**A.** Activity [3]: Active; Activity [4]: Active; Activity [1]: Active; Activity [5]: Active; Activity [6]: Active
